The record followed here is patent US10494360B2, “Inhibitors of indoleamine 2,3-dioxygenase” (NETHERLANDS TRANSLATIONAL RESEARCH CENTER B.V., priority 2016, dated 2019).

The structures appear in SMILES notation. pIC50: −log10 of the molar value. Several values for one entry are separate records, joined by “and”; a condition that tells them apart may be missing. Equal entries are not always repeated.

As a reminder, the pIC50 is the IC50 on a negative log10 scale, so that one unit is a factor of ten.

The experiment addresses IDO1 (Homo sapiens, UniProt P14902). The experiment is described as follows: Biochemical IDO1 assay (NFK GreenScreen). The conditions noted are these: for pIC50: recombinant full-length IDO1 25 nM, L-tryptophan 100 μM, NFK Green detection, read-out: IC50, inhibitory potency on IDO1; for relative activity of separated isomers: less active / most active isomer of the pair, assay not given. Also on record: Recombinant full-length IDO1 (Seegers, N., et al.) and all other assay components were diluted in IDO1 reaction buffer; made in house. How it is done: Inhibition of IDO1 activity can be measured by determining the enzymatic conversion of L-tryptophan into N-formylkynurenine (NFK) in a reaction mixture containing IDO1 and test compound. The formation of NFK can be detected directly by, for instance, high-performance liquid chromatography (HPLC) methods, or by intrinsic fluorescence.
Compounds were serially diluted in dimethylsulfoxide (DMSO) and finally in IDO1 reaction buffer, consisting of 50 mM NaH2PO4, pH7.0, supplemented with 0.05% Tween-20 (cat. No. P7949; Sigma Aldrich) and 1% glycerol. Recombinant full-length IDO1 (Seegers, N., et al.) and all other assay components were diluted in IDO1 reaction buffer. […] Subsequently, 10 μl of 0.4 mM of the substrate L-tryptophan was added, i.e., the final concentration of L-tryptophan was 100 μM. The DMSO concentration in the assay was 0.3%. […] Incubation was continued for 60 min at room temperature. Then, 10 μl of NFK Green™ (NTRC, Oss, The Netherlands) was added, the plate was sealed, and the reaction was developed for 3 hours at 37° C. To determine the production of N-formyl kynurenine (NFK), the seal was removed and fluorescence was read on an EnVision multimode reader (Perkin Elmer, Waltham, Mass., USA). IC50 were calculated using XLfit™ software (ID Business Solutions, Ltd., Surrey, U.K.).

Sequence of IDO1 (P14902 whole entry, species assumed): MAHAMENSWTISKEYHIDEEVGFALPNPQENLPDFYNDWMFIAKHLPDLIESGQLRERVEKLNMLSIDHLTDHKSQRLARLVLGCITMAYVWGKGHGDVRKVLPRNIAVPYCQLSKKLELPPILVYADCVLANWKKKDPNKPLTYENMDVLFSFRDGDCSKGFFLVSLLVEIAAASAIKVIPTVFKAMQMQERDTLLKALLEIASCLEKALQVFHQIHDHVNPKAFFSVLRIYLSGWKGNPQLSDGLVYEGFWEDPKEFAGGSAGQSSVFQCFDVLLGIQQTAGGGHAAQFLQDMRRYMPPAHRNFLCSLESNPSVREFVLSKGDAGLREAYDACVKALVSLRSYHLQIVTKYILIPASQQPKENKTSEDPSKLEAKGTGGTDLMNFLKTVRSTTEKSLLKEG

Take `O=C1CN(C(=O)c2ncccc2F)C(c2cccc(Br)c2)N1O` (centres unmarked) [Example 89, 2-(3-Bromophenyl)-1-(3-fluoropyridine-2-carbonyl)-3-hydroxy-imidazolidin-4-one]: the pIC50 is ≥ 5.30 and 5.30 to 6.00.

As for `NCC#Cc1cc(F)c(C(=O)N2CC(=O)N(O)C2c2cccc(Br)c2)c(F)c1` (centres unmarked) [Example 109, 1-[4-(3-Aminoprop-1-ynyl)-2,6-difluoro-benzoyl]-2-(3-bromophenyl)-3-hydroxy-imidazolidin-4-one], the pIC50 is not below 6.00.

Consider `O=C1CN(Cc2ccccc2F)C(c2cccc(I)c2)N1O` (single isomer, unassigned) [Example 146b, 1-[(2-fluorophenyl)methyl]-3-hydroxy-2-(3-iodophenyl)imidazolidin-4-one], for which the “relative activity of separated isomers” value is listed as “most active isomer” and the pIC50 was not below 6.00.

As for `CS(=O)(=O)c1ccc(-c2ccc(C(=O)N3CC(=O)N(O)C3c3cccc(Br)c3)cc2)cc1` (centres unmarked) [Example 97, 2-(3-Bromophenyl)-3-hydroxy-1-[4-(4-methylsulfonylphenyl)benzoyl]imidazolidin-4-one], the pIC50 is ≥ 5.30 and 5.30 to 6.00.

For `O=C1CN(C(=O)c2cc(F)ccc2Cl)C(c2cccc(Br)c2)N1O` (centres unmarked) [Example 31, 2-(3-Bromophenyl)-1-(2-chloro-5-fluoro-benzoyl)-3-hydroxy-imidazolidin-4-one], the negative-log IC50 (pIC50) is ≥ 5.30 and 5.30 to 6.00.

Consider `O=C1CN(C(=O)c2ccc3cn[nH]c3c2)C(c2cccc(Br)c2)N1O` (centres unmarked) [Example 103, 2-(3-Bromophenyl)-3-hydroxy-1-(1H-indazole-6-carbonyl)imidazolidin-4-one], for which the pIC50 is ≥ 5.30 and 5.30 to 6.00.

Take `O=C1CN(C(=O)c2c(F)cc(C#CC3CC3)cc2F)C(c2cccc(Br)c2)N1O` (single isomer, unassigned) [Example 144a, 2-(3-bromophenyl)-1-[4-(2-cyclopropylethynyl)-2,6-difluoro-benzoyl]-3-hydroxy-imidazolidin-4-one]: the “relative activity of separated isomers” value is “less active isomer” and the pIC50 was not below 6.00.

As to `O=C1CN(C(=O)c2ccccc2)C(c2ccc(F)c(Cl)c2)N1O` (centres unmarked) [Example 50, 1-Benzoyl-2-(3-chloro-4-fluoro-phenyl)-3-hydroxy-imidazolidin-4-one], the pIC50 was ≥ 5.30 and 5.30 to 6.00.

For the molecule `CC(C)(C#Cc1cc(F)c(C(=O)N2CC(=O)N(O)C2c2cccc(Br)c2)c(F)c1)NS(N)(=O)=O` (centres unmarked) [Example 128, 2-(3-Bromophenyl)-1-[2,6-difluoro-4-[3-methyl-3-(sulfamoylamino)but-1-ynyl]benzoyl]-3-hydroxy-4-oxo-imidazolidine], the negative-log IC50 (pIC50) is not below 6.00.

Regarding `O=C1CN(Cc2ccccc2F)C(c2ccc(F)c(Br)c2)N1O` (centres unmarked) [Example 126, 2-(3-Bromo-4-fluoro-phenyl)-1-[(2-fluorophenyl)methyl]-3-hydroxy-imidazolidin-4-one], the pIC50 was not below 6.00.

Turning to `O=C1CN(C(=O)c2c(F)cccc2Cl)C(c2ccc(F)c(Br)c2)N1O` (single isomer, unassigned) [Example 143b, 2-(3-bromo-4-fluoro-phenyl)-1-(2-chloro-6-fluoro-benzoyl)-3-hydroxy-imidazolidin-4-one], the “relative activity of separated isomers” value was “most active isomer” and the pIC50 is not below 6.00.

`O=C1CN(C(=O)c2c(F)cccc2F)C(c2cccc(Br)c2)N1O` (single isomer, unassigned) [Example 142b, 2-(3-bromophenyl)-1-(2,6-difluorobenzoyl)-3-hydroxy-imidazolidin-4-one]: the “relative activity of separated isomers” value is reported as “most active isomer” and the pIC50 is not below 6.00.

Turning to `CCOC(=O)NC[C@H]1CC[C@H](C(=O)N2CC(=O)N(O)C2c2cccc(Br)c2)CC1` (relative stereo) [Example 102, (Trans)-ethyl N-[[4-[2-(3-bromophenyl)-3-hydroxy-4-oxo-imidazolidine-1-carbonyl]cyclohexyl]-methyl]carbamate], the pIC50 is ≥ 5.30 and 5.30 to 6.00.

In the case of `O=C1CN(C(=O)c2c(F)cc(-c3ccc(F)s3)cc2F)C(c2cccc(Br)c2)N1O` (centres unmarked) [Example 121, 2-(3-Bromophenyl)-1-[2,6-difluoro-4-(5-fluoro-2-thienyl)benzoyl]-3-hydroxy-imidazolidin-4-one], the pIC50 was ≥ 5.30 and 5.30 to 6.00.

In the case of `O=C1CN(C(=O)c2ccccc2)C(c2cccc(Br)c2)N1O` (single isomer, unassigned) [Example 64, 1-benzoyl-2-(3-bromophenyl)-3-hydroxy-imidazolidin-4-one], the pIC50 was ≥ 5.30 and 5.30 to 6.00.

Take `Cc1ccccc1C(=O)N1CC(=O)N(O)C1c1cccc(Br)c1` (centres unmarked) [Example 20, 2-(3-Bromophenyl)-3-hydroxy-1-(2-methylbenzoyl)imidazolidin-4-one]: the pIC50 was ≥ 5.30 and 5.30 to 6.00.

For the molecule `O=C1CN(C(=O)c2c(F)cccc2Cl)C(c2cccc(Cl)c2)N1O` (centres unmarked) [Example 14, 1-(2-Chloro-6-fluoro-benzoyl)-2-(3-chlorophenyl)-3-hydroxy-imidazolidin-4-one], the pIC50 is ≥ 5.30 and 5.30 to 6.00.

For `O=C1CN(C(=O)c2cccs2)C(c2cccc(Br)c2)N1O` (centres unmarked) [Example 90, 2-(3-Bromophenyl)-3-hydroxy-1-(thiophene-2-carbonyl)imidazolidin-4-one], the pIC50 is ≥ 5.30 and 5.30 to 6.00.

For `O=C1CN(C(=O)c2c(Cl)cccc2Cl)C(c2ccc(F)c(Br)c2)N1O` (centres unmarked) [Example 48, 2-(3-Bromo-4-fluoro-phenyl)-1-(2,6-dichlorobenzoyl)-3-hydroxy-imidazolidin-4-one], the pIC50 was ≥ 5.30 and 5.30 to 6.00.

With `O=C1CN(C(=O)c2c(F)cc(N3CCC3)cc2F)C(c2cccc(Br)c2)N1O` (centres unmarked) [Example 134, 1-[4-(Azetidin-1-yl)-2,6-difluoro-benzoyl]-2-(3-bromophenyl)-3-hydroxy-imidazolidin-4-one], the pIC50 is ≥ 5.30 and 5.30 to 6.00.

`O=C1CN(C(=O)c2ccccc2)C(c2cccc(C(F)(F)F)c2)N1O` (centres unmarked) [Example 1, 1-Benzoyl-3-hydroxy-2-[3-(trifluoromethyl)phenyl]imidazolidin-4-one]: the pIC50 is ≥ 5.30 and 5.30 to 6.00.

On to `O=C1CN(C(=O)c2ccccc2)C(c2cccc(Cl)c2)N1O` (centres unmarked) [Example 60, 1-Benzoyl-2-(3-chlorophenyl)-3-hydroxy-imidazolidin-4-one], for which the pIC50 is ≥ 5.30 and 5.30 to 6.00.

For `O=C1CN(C(=O)c2c(F)cc(C#CC3CC3)cc2F)C(c2cccc(Br)c2)N1O` (single isomer, unassigned) [Example 144b, 2-(3-bromophenyl)-1-[4-(2-cyclopropylethynyl)-2,6-difluoro-benzoyl]-3-hydroxy-imidazolidin-4-one], the “relative activity of separated isomers” value is listed as “most active isomer” and the pIC50 is not below 6.00.

For the molecule `CS(=O)(=O)NCc1cc(F)c(C(=O)N2CC(=O)N(O)C2c2cccc(Br)c2)c(F)c1` (centres unmarked) [Example 130, N-[[4-[2-(3-bromophenyl)-3-hydroxy-4-oxo-imidazolidine-1-carbonyl]-3,5-difluoro-phenyl]methyl]methanesulfonamide], the pIC50 was not below 6.00.

Take `O=C1CN(C(=O)c2ccc(F)cc2)C(c2ccc(F)c(Br)c2)N1O` (centres unmarked) [Example 40, 2-(3-Bromo-4-fluoro-phenyl)-1-(4-fluorobenzoyl)-3-hydroxy-imidazolidin-4-one]: the pIC50 is ≥ 5.30 and 5.30 to 6.00.

For the molecule `CS(=O)(=O)Nc1ccc(F)c(C(=O)N2CC(=O)N(O)C2c2cccc(Br)c2)c1F` (centres unmarked) [Example 78, N-[3-[2-(3-bromophenyl)-3-hydroxy-4-oxo-imidazolidine-1-carbonyl]-2,4-difluoro-phenyl]methanesulfonamide], the pIC50 is ≥ 5.30 and 5.30 to 6.00.

Turning to `O=C1CN(C(=O)c2ccccc2)C(c2cccc(Br)c2)N1O` (single isomer, unassigned) [Example 63b, 1-benzoyl-2-(3-bromophenyl)-3-hydroxy-imidazolidin-4-one], the negative-log IC50 (pIC50) was ≥ 5.30 and 5.30 to 6.00.

Consider `CS(=O)(=O)N1CCC(C(=O)N2CC(=O)N(O)C2c2cccc(Br)c2)CC1` (centres unmarked) [Example 100, 2-(3-Bromophenyl)-3-hydroxy-1-(1-methylsulfonylpiperidine-4-carbonyl)imidazolidin-4-one], for which the pIC50 was ≥ 5.30 and 5.30 to 6.00.

Regarding `O=C1CN(C(=O)c2ccc(F)cc2Cl)C(c2cccc(Br)c2)N1O` (centres unmarked) [Example 30, 2-(3-Bromophenyl)-1-(2-chloro-4-fluoro-benzoyl)-3-hydroxy-imidazolidin-4-one], the pIC50 was ≥ 5.30 and 5.30 to 6.00.

With `O=C1CN(C(=O)c2ccc(C(F)(F)F)cc2F)C(c2cccc(Br)c2)N1O` (centres unmarked) [Example 38, 2-(3-Bromophenyl)-1-[2-fluoro-4-(trifluoromethyl)benzoyl]-3-hydroxy-imidazolidin-4-one], the pIC50 was ≥ 5.30 and 5.30 to 6.00.

As to `NS(=O)(=O)NCCCc1cc(F)c(C(=O)N2CC(=O)N(O)C2c2cccc(Br)c2)c(F)c1` (centres unmarked) [Example 132, 2-(3-Bromophenyl)-1-[2,6-difluoro-4-[3-(sulfamoylamino)propyl]benzoyl]-3-hydroxy-4-oxo-imidazolidine], the negative-log IC50 (pIC50) was not below 6.00.

In the case of `O=C1CN(Cc2c(F)cccc2F)C(c2cccc(Br)c2)N1O` (single isomer, unassigned) [Example 145b, 2-(3-bromophenyl)-1-[(2,6-difluorophenyl)methyl]-3-hydroxy-imidazolidin-4-one], the “relative activity of separated isomers” value is listed as “most active isomer” and the pIC50 was not below 6.00.
